The target of the assay is human PCSK9 / human LDLR EGFa domain interaction (Homo sapiens, UniProt Q8NBP7). The assay is described as follows: TR-FRET assay of inhibition of the PCSK9-LDLR protein-protein interaction. The format is binding. Particulars: 20 nM avitag-biotinylated human PCSK9, 20 nM his-tagged human LDLR EGFa domain, 2 hours, room temperature. As to the method: A time-resolved fluorescence resonance energy (TR-FRET) assay was used to measure inhibition of the PCSK9-LDLR protein-protein interaction. Briefly, 20 nM avitag-biotinylated human PCSK9 was incubated with 20 nM his-tagged human LDLR EGFa domain in the presence of 5 nM LANCE Ulight Streptavidin (Perkin Elmer) and 5 nM europium-Anti-6×His (Perkin Elmer) for 2 hours covered at room temperature in buffer containing 50 mM HEPES, 150 mM NaCl, 5 mM CaCl2), 0.01% BSA and 0.01% Surfactant P20. Compounds were tested in dose-response and concentrations giving half-maximal inhibition calculated using a 4-parameter fit equation.
human PCSK9 / human LDLR EGFa domain interaction, sequence (Q8NBP7 153-692): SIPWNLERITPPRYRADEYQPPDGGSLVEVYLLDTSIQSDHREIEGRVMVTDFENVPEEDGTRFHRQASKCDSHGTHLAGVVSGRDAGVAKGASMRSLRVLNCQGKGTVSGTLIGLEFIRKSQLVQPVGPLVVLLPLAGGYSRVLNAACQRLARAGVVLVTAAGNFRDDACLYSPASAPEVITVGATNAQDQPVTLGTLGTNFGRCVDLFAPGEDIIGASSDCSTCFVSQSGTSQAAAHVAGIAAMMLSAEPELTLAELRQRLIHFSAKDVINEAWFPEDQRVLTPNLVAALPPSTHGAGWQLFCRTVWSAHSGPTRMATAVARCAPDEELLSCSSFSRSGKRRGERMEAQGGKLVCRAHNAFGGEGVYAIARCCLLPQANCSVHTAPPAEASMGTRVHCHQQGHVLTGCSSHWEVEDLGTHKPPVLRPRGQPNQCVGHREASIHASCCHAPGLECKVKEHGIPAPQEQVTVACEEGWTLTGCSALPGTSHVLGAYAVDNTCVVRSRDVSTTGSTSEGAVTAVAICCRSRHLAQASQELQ
human PCSK9 / human LDLR EGFa domain interaction, sequence (Q8NBP7 31-152 partner limits assumed): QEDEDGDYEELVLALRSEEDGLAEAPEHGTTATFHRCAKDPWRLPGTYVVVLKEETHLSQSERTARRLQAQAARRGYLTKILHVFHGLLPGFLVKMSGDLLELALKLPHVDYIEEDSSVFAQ

SMILES strings stand for the structures. Numbered stars: 1 amine (or outer) side, 2 acyl side, 3 side chain; on linkers, the order of the positions; unused ones are H or OH. Bridge positions count the residues as written; N and C are the ends. Square brackets hold non-standard residues; d marks the D form. Peptide text beside a SMILES is read from it. Trp(7-aza) = N[C@@H](Cc1c[nH]c2ncccc12)C(=O)O; X7 = O=C(CCSCc1cccc(CSCCN[*:1])c1)[*:2]; Ala(2-furyl) = N[C@@H](Cc1ccco1)C(=O)O; 1Nal = N[C@@H](Cc1cccc2ccccc12)C(=O)O; mXylylene = c1cc(C[*:1])cc(C[*:2])c1; 3Thi = N[C@@H](Cc1ccsc1)C(=O)O; Aad = N[C@@H](CCCC(=O)O)C(=O)O; Chg = N[C@H](C(=O)O)C1CCCCC1; PEG4 = NCCOCCOCCOCCOCCC(=O)O; Tle = CC(C)(C)[C@H](N)C(=O)O; αMeV = CC(C)[C@](C)(N)C(=O)O; NMeV = CN[C@H](C(=O)O)C(C)C; S5 = C=CCCC[C@](C)(N)C(=O)O; hSer = N[C@@H](CCO)C(=O)O; Iva = CC[C@](C)(N)C(=O)O; Nva = CCC[C@H](N)C(=O)O; Aib = CC(C)(N)C(=O)O; Mpa = O=C(O)CCS

A word on the IC50: it is the concentration needed to halve the response being measured. High values mean weaker potency, low ones greater potency. In the case of `C=CCCC[C@]1(C)NC(=O)[C@H](Cc2cccc3ccccc23)NC(=O)[C@H]([C@@H](C)O)NC(=O)[C@@H]2CCCN2C(=O)[C@H](Cc2ccc(O)cc2)NC(=O)[C@H](C(C)(C)C)NC(=O)[C@@H](NC(C)=O)CCCC(=O)NCCCC[C@@H](C(N)=O)NC(=O)[C@](C)(CCCC=C)NC(=O)[C@H](CCC)NC(=O)[C@H](Cc2ccc(O)cc2)NC(=O)[C@H](C)NC1=O` [Compound 044] (Ac-[Aad][Tle]YPT[1Nal][S5]AY[Nva][S5]K-NH2; lactam 1-12), the IC50 was in the range of 100 to 1000 nM.
With `CCC[C@@H]1NC(=O)[C@H](Cc2ccc(O)cc2)NC(=O)[C@H](C)NC(=O)C(C)(C)NC(=O)[C@H](Cc2c[nH]c3ncccc23)NC(=O)[C@H]([C@@H](C)O)NC(=O)[C@@H]2CCCN2C(=O)[C@H](Cc2ccc(O)cc2)NC(=O)[C@H](C(C)(C)C)NC(=O)[C@@H](NC(C)=O)CCCC(=O)NCCCC[C@@H](C(N)=O)NC(=O)C(C)(C)NC1=O` [Compound 049] (Ac-[Aad][Tle]YPT[Trp(7-aza)][Aib]AY[Nva][Aib]K-NH2; lactam 1-12) the figure was 100 to 1000 nM; with `C=CCCC[C@]1(C)NC(=O)[C@H](CCC)NC(=O)[C@H](Cc2ccc(O)cc2)NC(=O)[C@H](C)NC(=O)[C@](C)(CC)NC(=O)[C@H](Cc2c[nH]c3ncccc23)NC(=O)[C@H]([C@@H](C)O)NC(=O)[C@@H]2CCCN2C(=O)[C@H](Cc2ccc(O)cc2)NC(=O)[C@H](C(C)(C)C)NC(=O)[C@@H](NC(C)=O)CCCC(=O)NCCCC[C@@H](C(N)=O)NC1=O` [Compound 050] (Ac-[Aad][Tle]YPT[Trp(7-aza)][Iva]AY[Nva][S5]K-NH2; lactam 1-12), 1000 to 21000 nM; with `CCC[C@@H]1NC(=O)[C@H]([C@@H](C)O)NC(=O)[C@@H]2CCCN2C(=O)[C@H](Cc2ccc(O)cc2)NC(=O)[C@H](C(C)(C)C)NC(=O)[C@@H](NC(C)=O)CCCCNC(=O)CCC[C@@H](C(N)=O)NC(=O)[C@H]([C@@H](C)O)NC(=O)[C@](C)(C(C)C)NC(=O)[C@H](Cc2ccc(O)cc2)NC(=O)[C@H](C)NC1=O` [Compound 057] (Ac-K[Tle]YPT[Nva]AY[αMeV]T[Aad]-NH2; lactam 1-11), 1000 to 21000 nM.
With `CCC[C@@H]1NC(=O)[C@H](Cc2c[nH]c3ncccc23)NC(=O)[C@H]([C@@H](C)O)NC(=O)[C@@H]2CCCN2C(=O)[C@H](Cc2ccc(O)cc2)NC(=O)[C@H](C(C)(C)C)NC(=O)[C@@H](NC(C)=O)CCCC(=O)NCCCC[C@H](C(N)=O)NC(=O)[C@H]([C@@H](C)O)NC(=O)[C@](C)(C(C)C)NC(=O)[C@H](Cc2ccc(O)cc2)NC(=O)[C@H](C)NC1=O` [Compound 072] (Ac-[Aad][Tle]YPT[Trp(7-aza)][Nva]AY[αMeV]T[dK]-NH2; lactam 1-12) the figure was 1000 to 21000 nM; with `CCC[C@@H]1NC(=O)[C@H](Cc2ccc(O)cc2)NC(=O)[C@H](C)NC(=O)[C@@](C)(NC(=O)[C@H](Cc2cccc3ccccc23)NC(=O)[C@@H](NC(=O)[C@@H]2CCCN2C(=O)[C@H](Cc2ccc(O)cc2)NC(=O)[C@@H](NC(C)=O)C(C)(C)C)[C@@H](C)O)CCC/C=C/CCC[C@@](C)(C(N)=O)NC1=O` [Compound 078] (Ac-[Tle]YPT[1Nal][S5]AY[Nva][S5]-NH2; staple (E) 6-10), 1000 to 21000 nM.
With `CCC[C@@H]1NC(=O)[C@H](Cc2c[nH]c3ncccc23)NC(=O)[C@H]([C@@H](C)O)NC(=O)[C@H](Cc2ccco2)NC(=O)[C@H](Cc2ccc(O)cc2)NC(=O)[C@H](C(C)(C)C)NC(=O)CCSCc2cccc(c2)CSC[C@@H](C(N)=O)NC(=O)[C@H]([C@@H](C)O)NC(=O)[C@H](CCC)NC(=O)[C@H](Cc2ccc(O)cc2)NC(=O)[C@H](CCC(=O)O)NC1=O` [Compound 117] ([Mpa][Tle]Y[Ala(2-furyl)]T[Trp(7-aza)][Nva]EY[Nva]TC-NH2; linker 1-12 via mXylylene) the figure was 1000 to 21000 nM; with `CCC[C@@H]1NC(=O)[C@H](Cc2c[nH]c3ncccc23)NC(=O)[C@H]([C@@H](C)O)NC(=O)[C@H](Cc2ccsc2)NC(=O)[C@H](Cc2ccc(O)cc2)NC(=O)[C@H](C(C)(C)C)NC(=O)CCSCc2cccc(c2)CSC[C@@H](C(N)=O)NC(=O)[C@H]([C@@H](C)O)NC(=O)[C@H](CCC)NC(=O)[C@H](Cc2ccc(O)cc2)NC(=O)[C@H](CCC(=O)O)NC1=O` [Compound 119] ([Mpa][Tle]Y[3Thi]T[Trp(7-aza)][Nva]EY[Nva]TC-NH2; linker 1-12 via mXylylene), 1000 to 21000 nM; with `CC(C)[C@H]1C(=O)N[C@@H](Cc2ccccc2)C(=O)N2CCC[C@H]2C(=O)N[C@@H]([C@@H](C)O)C(=O)N[C@@H](Cc2cccc3ccccc23)C(=O)NC(C)(C)C(=O)N[C@@H](C)C(=O)N[C@@H](Cc2ccccc2)C(=O)N[C@@](C)(C(C)C)C(=O)N[C@@H](C)C(=O)NCCSCc2cccc(c2)CSCCC(=O)N1C` [Compound 143] (cyclo([1Nal][Aib]AF[αMeV]A[X7][NMeV]FPT)), 1000 to 21000 nM.
For `CCC[C@H](NC(C)=O)C(=O)N[C@H]1CSCc2cccc(c2)CSC[C@@H](C(N)=O)NC(=O)[C@H]([C@@H](C)O)NC(=O)[C@H](C2CCCCC2)NC(=O)[C@H](Cc2c[nH]c3ncccc23)NC(=O)[C@H](Cc2c[nH]cn2)NC(=O)[C@H](CCC(=O)O)NC(=O)[C@H](Cc2c[nH]c3ncccc23)NC(=O)[C@H]([C@@H](C)O)NC(=O)[C@@H]2CCCN2C(=O)[C@H](Cc2ccc(O)cc2)NC(=O)[C@H](C(C)(C)C)NC1=O` [Compound 152] (Ac-[Nva]C[Tle]YPT[Trp(7-aza)]EH[Trp(7-aza)][Chg]TC-NH2; linker 2-13 via mXylylene), the half-inhibitory concentration (IC50) lay within 1 to 100 nM.
With `CCC[C@H](NC(C)=O)C(=O)N[C@H]1CSCc2cccc(c2)CSC[C@@H](C(N)=O)NC(=O)[C@H]([C@@H](C)O)NC(=O)[C@H](CCC)NC(=O)[C@H](Cc2ccc(O)cc2)NC(=O)[C@H](CCC(=O)O)NC(=O)[C@H](CCC)NC(=O)[C@H](Cc2c[nH]c3ncccc23)NC(=O)[C@H]([C@@H](C)O)NC(=O)[C@@H]2CCCN2C(=O)[C@H](Cc2ccc(O)cc2)NC(=O)[C@H](C(C)(C)C)NC1=O` [Compound 153] (Ac-[Nva]C[Tle]YPT[Trp(7-aza)][Nva]EY[Nva]TC-NH2; linker 2-13 via mXylylene) the figure was 100 to 1000 nM; with `C[C@@H](O)[C@@H]1NC(=O)[C@H](C2CCCCC2)NC(=O)[C@H](Cc2c[nH]c3ncccc23)NC(=O)[C@H](Cc2c[nH]cn2)NC(=O)[C@H](CCC(=O)O)NC(=O)[C@H](Cc2c[nH]c3ncccc23)NC(=O)[C@H]([C@@H](C)O)NC(=O)[C@@H]2CCCN2C(=O)[C@H](Cc2ccc(O)cc2)NC(=O)[C@H](C(C)(C)C)NC(=O)CCSCc2cccc(c2)CSC[C@@H](C(N)=O)NC1=O` [Compound 154] ([Mpa][Tle]YPT[Trp(7-aza)]EH[Trp(7-aza)][Chg]TC-NH2; linker 1-12 via mXylylene), 100 to 1000 nM; with `CCC[C@@H]1NC(=O)[C@H](Cc2c[nH]c3ncccc23)NC(=O)[C@H]([C@@H](C)O)NC(=O)[C@@H]2CCCN2C(=O)[C@H](Cc2ccc(O)cc2)NC(=O)[C@H](C(C)(C)C)NC(=O)CCSCc2cccc(c2)CSC[C@@H](C(N)=O)NC(=O)[C@H]([C@@H](C)O)NC(=O)[C@H](CCC)NC(=O)[C@H](Cc2ccc(O)cc2)NC(=O)[C@H](C)NC1=O` [Compound 157] ([Mpa][Tle]YPT[Trp(7-aza)][Nva]AY[Nva]TC-NH2; linker 1-12 via mXylylene), 100 to 1000 nM.
With `CCC[C@@H]1NC(=O)[C@H](Cc2c[nH]c3ncccc23)NC(=O)[C@H]([C@@H](C)O)NC(=O)[C@@H]2CCCN2C(=O)[C@H](Cc2ccc(O)cc2)NC(=O)[C@H](C(C)(C)C)NC(=O)CCSCc2cccc(c2)CSC[C@@H](C(N)=O)NC(=O)[C@H]([C@@H](C)O)NC(=O)[C@H](CCC)NC(=O)[C@H](Cc2ccc(O)cc2)NC(=O)[C@H](CCO)NC1=O` [Compound 158] ([Mpa][Tle]YPT[Trp(7-aza)][Nva][hSer]Y[Nva]TC-NH2; linker 1-12 via mXylylene) the figure was 1000 to 21000 nM; with `CCC[C@@H]1NC(=O)[C@H](Cc2c[nH]c3ncccc23)NC(=O)[C@H]([C@@H](C)O)NC(=O)[C@@H]2CCCN2C(=O)[C@H](Cc2ccc(O)cc2)NC(=O)[C@H](C(C)(C)C)NC(=O)CCSCc2cccc(c2)CSC[C@@H](C(N)=O)NC(=O)[C@H](CCC(=O)O)NC(=O)[C@H](CCC)NC(=O)[C@H](Cc2ccc(O)cc2)NC(=O)[C@H](C)NC1=O` [Compound 159] ([Mpa][Tle]YPT[Trp(7-aza)][Nva]AY[Nva]EC-NH2; linker 1-12 via mXylylene), 1000 to 21000 nM.
For `CCC[C@@H]1NC(=O)[C@H](Cc2c[nH]c3ncccc23)NC(=O)[C@H]([C@@H](C)O)NC(=O)[C@@H]2CCCN2C(=O)[C@H](Cc2ccc(O)cc2)NC(=O)[C@H](C(C)(C)C)NC(=O)CCSCc2cccc(c2)CSC[C@@H](C(N)=O)NC(=O)[C@H]([C@@H](C)O)NC(=O)[C@H](CCC(=O)O)NC(=O)[C@H](Cc2ccc(O)cc2)NC(=O)[C@H](C)NC1=O` [Compound 160] ([Mpa][Tle]YPT[Trp(7-aza)][Nva]AYETC-NH2; linker 1-12 via mXylylene), the IC50 is 100 to 1000 nM.
With `CCC[C@@H]1NC(=O)[C@H](Cc2c[nH]c3ncccc23)NC(=O)[C@H]([C@@H](C)O)NC(=O)[C@@H]2CCCN2C(=O)[C@H](Cc2ccc(O)cc2)NC(=O)[C@H](C(C)(C)C)NC(=O)CCSCc2cccc(c2)CSC[C@@H](C(=O)NCCOCCOCCOCCOCCC(N)=O)NC(=O)[C@H]([C@@H](C)O)NC(=O)[C@H](CCC)NC(=O)[C@H](Cc2ccc(O)cc2)NC(=O)[C@H](C)NC1=O` [Compound 163] ([Mpa][Tle]YPT[Trp(7-aza)][Nva]AY[Nva]TC[PEG4]-NH2; linker 1-12 via mXylylene) the figure was 100 to 1000 nM.

For the origin of these results see patent publication US11814444B2, “Cyclic polypeptides for PCSK9 inhibition” (Ra Pharmaceuticals, Inc., priority 2018, dated 2023).
